The values below come from patent EP0851902B1, “METHOD FOR COATING” (F2 Chemicals Ltd., priority 1995, dated 1997).

The nature of this data set: Water solubility (typical physical properties, Table 1). It is filed as physicochemical. To be noted: components of the 2% w/w solution of resin in perfluorohexane. On the procedure:
A solution of a fluoropolymer resin, prepared in accordance with details given in PCT Patent Application No. WO 94/05498 (and documents referred to therein), was prepared by dissolving sufficient of it, at room temperature in perfluorohexane ("FLUTEC" PP-1 from BNFL Fluorochemicals Ltd) to make a 2% w/w solution.

As for `FC(F)(F)C(F)(F)C(F)(F)C(F)(F)C(F)(F)C(F)(F)F` [SOLVENT, perfluorohexane], the “Water Solubility” value is given as “Insoluble”.
